Assay results as given in publication PMC11904993, “Humanized Candida and NanoBiT Assays Expedite Discovery of Bdf1 Bromodomain Inhibitors With Antifungal Potential” (Advanced Science, 2025).
Values joined by “and” are separate entries in the source; they are usually repeats but may differ in a detail not shown here. Equal entries are not always repeated. Where two headings read alike, the source gives them in different places.

Key:
C. krusei = experiment: Growth in liquid media; format: cell-based; conditions: Fig 5C
Description: (§1) Strains were presented in Table S8 (Supporting Information). Cells from a single colony were diluted in 0.85% NaCl before being counted using a Neubauer chamber. They were diluted to a final concentration of 6500 cells mL^−1 per well for all clinical strains of C. albicans and C. glabrata; 65 000 cells mL^−1 per well for C. auris; 13 500 cells mL^−1 per well for C. parapsilosis; 3375 cells mL^−1 per well for C. krusei and 1687.5 cells mL^−1 per well for C. tropicalis, in a sterile 96‐well plate. Cells were then grown in SC medium with or without chemical compounds at 30 °C with regular shaking. The significance of growth defects was assessed using Holm‐Sidak method by GraphPad Prism 10.

C. parapsilosis = experiment: Growth in liquid media; format: cell-based; conditions: Fig 5C; for Growth (%): C. parapsilosis
Description: as §1

C. tropicalis = experiment: Growth in liquid media; format: cell-based; conditions: Fig 5C; for Growth (%): C. tropicalis
Description: as §1

[1] = test system: humanized C. albicans strains (both Bdf1 BDs replaced by Brd4 BDs); experiment: Growth in liquid media, humanized C. albicans; format: cell-based; conditions: Candida albicans, read-out: EC50 (μM), C. albicans (hum)
Description: as §1

Bdf1/Swc4 = molecular target: T1, Bdf1/Swc4 (Saccharomyces cerevisiae, UniProt P35817); experiment: NanoBiT assay, control pair; format: cell-based, S. cerevisiae; set-up: remaining activity: dose or concentration left out as unconfirmed
T1 construct: expressed in transfected cells; host or cells: S. cerevisiae
T1 sequence (P35817 whole entry): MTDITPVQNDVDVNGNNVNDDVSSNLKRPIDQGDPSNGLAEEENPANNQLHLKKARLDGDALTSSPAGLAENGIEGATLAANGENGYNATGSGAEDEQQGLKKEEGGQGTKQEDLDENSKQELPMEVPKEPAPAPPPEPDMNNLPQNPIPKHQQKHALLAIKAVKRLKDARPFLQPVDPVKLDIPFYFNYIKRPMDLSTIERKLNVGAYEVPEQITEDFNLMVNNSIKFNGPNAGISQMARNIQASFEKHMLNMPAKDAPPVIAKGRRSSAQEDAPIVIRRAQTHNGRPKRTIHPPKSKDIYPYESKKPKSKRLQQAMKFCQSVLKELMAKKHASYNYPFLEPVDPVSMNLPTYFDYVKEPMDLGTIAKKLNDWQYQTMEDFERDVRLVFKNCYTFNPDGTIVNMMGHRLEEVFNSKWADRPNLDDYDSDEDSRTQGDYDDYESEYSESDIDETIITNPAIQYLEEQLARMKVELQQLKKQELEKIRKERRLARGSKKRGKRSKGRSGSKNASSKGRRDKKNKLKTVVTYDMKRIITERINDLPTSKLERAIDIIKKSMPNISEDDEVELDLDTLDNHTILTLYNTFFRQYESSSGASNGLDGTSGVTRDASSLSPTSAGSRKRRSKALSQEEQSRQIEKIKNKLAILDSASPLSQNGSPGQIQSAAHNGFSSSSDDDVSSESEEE
T1 sequence (P53201 whole entry, further chain): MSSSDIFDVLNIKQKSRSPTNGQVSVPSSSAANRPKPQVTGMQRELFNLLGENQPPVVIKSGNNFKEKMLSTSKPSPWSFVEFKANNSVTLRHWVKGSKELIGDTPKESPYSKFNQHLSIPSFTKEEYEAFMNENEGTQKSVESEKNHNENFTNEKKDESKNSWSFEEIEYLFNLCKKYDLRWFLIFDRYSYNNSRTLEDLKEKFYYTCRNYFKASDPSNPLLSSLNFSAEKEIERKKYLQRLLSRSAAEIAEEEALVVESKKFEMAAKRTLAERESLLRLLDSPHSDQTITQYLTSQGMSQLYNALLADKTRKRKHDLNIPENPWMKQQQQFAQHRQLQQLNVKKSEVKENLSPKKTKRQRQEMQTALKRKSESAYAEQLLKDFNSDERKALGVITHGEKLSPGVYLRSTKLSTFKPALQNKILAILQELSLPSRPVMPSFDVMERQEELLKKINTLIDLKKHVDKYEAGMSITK
Description: Yeast strains were distributed in 96‐well microplates containing SC(MSG)‐U medium (SC‐U medium with 0.1% monosodium glutamate instead of ammonium sulfate as a nitrogen source) and grown at 30 °C. 40 µL of exponentially growing cells were transferred in white 96‐well half‐area microplates (ProxiPlate Plus, Greiner Bio‐One) previously filled with 40 µL per well of SC(MSG) containing 100 µM furimazine. The microplates were then incubated for 10 min in the dark before the luminescence signals were recorded using a microplate reader (Ensight, PerkinElmer). Luminescence measurements were performed for 1 s per well at a distance of 0.1 mm between the plate and the detector. The luminescence values were normalized with the optical density (OD600) of the corresponding cultures. For NanoBiT assays with BET inhibitors, yeast cultures were grown overnight at 30 °C in SC(MSG) medium in the presence of serial dilutions of 24c and I‐BET726. Overnight cultures were diluted 5 fold in SC(MSG) and incubated for 1 h before luminescence was recorded as previously indicated. Luminescence values for each condition were normalized using the average of the luminescence recorded for the Bdf1/Swc4 and Bmh1/Bmh2 controls.

[2] = test system: C. glabrata expressing humanized Bdf1 (Brd4 BDs); experiment: Growth inhibition in liquid media, humanized C. glabrata strains; conditions: for EC50: Nakaseomyces glabratus
Description: Growth on Liquid Media with C. glabrata Lab Strains: Cells were grown at 30 °C in SC+M+C‐U medium (SC medium with 5 mM methionine, 0.25 mM cysteine, without uracil) to an OD600 of 0.5–0.8. […] Plates were incubated at 30 °C and OD600 was measured using a Multiskan FC Microplate Photometer (Thermo Fisher).

In the case of CC(=O)N1c2ccc(-c3ccc(C(=O)O)cc3)cc2C(Nc2ccc(Cl)cc2)CC1C (centres unmarked) [I-BET726], the “Growth (%)” value (C. krusei; 3.125 µM) is reported as 102% and 92% and 91%, the “Growth (%)” value (C. krusei; 25 µM) is reported as 103% and 86% and 91% and the “Growth (%)” value (C. parapsilosis; 1.5625 µM) is reported as 87% and 91% and 88%. The “Growth (%)” value (C. parapsilosis; 3.125 µM) was 79% and 80% and 78%, the “Growth (%)” value (C. parapsilosis; 25 µM) was 58% and 59% and 57% and the EC50 (C. parapsilosis; Lodderomyces parapsilosis) was about 30 µM. For the same molecule, the “Growth (%)” value (C. tropicalis; 1.5625 µM) was 85% and 87% and 84%, the “Growth (%)” value (C. tropicalis; 3.125 µM) was 76% and 75% and the “Growth (%)” value (C. tropicalis; 25 µM) was 31% and 40% and 34%. For the same molecule, the EC50 (C. tropicalis; Candida tropicalis) was 8.8 ± 1.4 µM, the EC50 [1] was 0.035 ± 0.003 µM and the remaining activity at 24.41 µM (Bdf1/Swc4; Bdf1-SmBiT, Swc4-LgBiT, 0.02441 mM, Fig 4C, read-out: Normalized nanoBiT signal) was 95%. For the same molecule, the remaining activity at 97.66 µM (Bdf1/Swc4; Bdf1-SmBiT, Swc4-LgBiT, 0.09766 mM, Fig 4C, read-out: Normalized nanoBiT signal) was 93%, the remaining activity at 195.31 µM (Bdf1/Swc4; Bdf1-SmBiT, Swc4-LgBiT, 0.19531 mM, Fig 4C, read-out: Normalized nanoBiT signal) was 95% and the remaining activity at 390.63 µM (Bdf1/Swc4; Bdf1-SmBiT, Swc4-LgBiT, 0.39063 mM, Fig 4C, read-out: Normalized nanoBiT signal) was 91%. The remaining activity at 781.25 µM (Bdf1/Swc4; Bdf1-SmBiT, Swc4-LgBiT, 0.78125 mM, Fig 4C, read-out: Normalized nanoBiT signal) was 90%, the remaining activity (Bdf1/Swc4; Bdf1-SmBiT, Swc4-LgBiT, […], Fig 4C, read-out: Normalized nanoBiT signal) was 99% and the “inhibition of NanoBiT signal, Bdf1/Swc4” value (Bdf1/Swc4; control pair independent of Bdf1 BDs) was “not observed”. For the same molecule, the remaining activity at 48.83 µM (Bdf1/Swc4; read-out: Normalized nanoBiT signal) was 92%, the “%Growth” value ([2]; Fig 3E, 50 µM, BDF1-hBD1-flag, Exp 1-3) was 2.33% and 1.84% and 1.76% and the “%Growth” value ([2]; Fig 3E, 50 µM, BDF1-hBD2-flag, Exp 1-3) was 3.8% and 4.25% and 4%. For the same molecule, the “%Growth” value ([2]; Fig 3E, 50 µM, humanized BDF1-flag, Exp 1-3) was 0.38% and 2.64% and 0.389%, the “%Growth” value ([2]; Fig 3F, BDF1-hBD1-flag, 0.0137 µM) was 90.66% and 83.58% and 76.59% and the “%Growth” value ([2]; Fig 3F, BDF1-hBD1-flag, 0.0412 µM) was 77.41% and 78.96% and 63.08%. For the same molecule, the “%Growth” value ([2]; Fig 3F, BDF1-hBD1-flag, 0.1235 µM) was 61.07% and 68.69% and 57.31%, the “%Growth” value ([2]; Fig 3F, BDF1-hBD1-flag, 0.3704 µM) was 41.42% and 40.29% and 42% and the “%Growth” value ([2]; Fig 3F, BDF1-hBD1-flag, 1.1111 µM) was 16.57% and 19.25% and 16.52%. The “%Growth” value ([2]; Fig 3F, BDF1-hBD1-flag, 3.3333 µM) was 5.27% and 7.44% and 4.82%, the “%Growth” value ([2]; Fig 3F, BDF1-hBD2-flag, 0.0137 µM) was 47.68% and 58.64% and 43.37% and the “%Growth” value ([2]; Fig 3F, BDF1-hBD2-flag, 0.0412 µM) was 32.5% and 27.54% and 41.03%. The “%Growth” value ([2]; Fig 3F, BDF1-hBD2-flag, 0.1235 µM) was 16.07% and 15.16% and 20.65%, the “%Growth” value ([2]; Fig 3F, BDF1-hBD2-flag, 0.3704 µM) was 9.64% and 8.03% and 12.17% and the “%Growth” value ([2]; Fig 3F, BDF1-hBD2-flag, 1.1111 µM) was 6.25% and 6.02% and 7.12%. For the same molecule, the “%Growth” value ([2]; Fig 3F, BDF1-hBD2-flag, 3.3333 µM) was 4.46% and 5.24% and 6.4%, the “%Growth” value ([2]; Fig 3F, humanized BDF1-flag, 0.0137 µM) was 42.92% and 50.6% and 44.95% and the “%Growth” value ([2]; Fig 3F, humanized BDF1-flag, 0.0412 µM) was 25.63% and 22.37% and 34.68%. The “%Growth” value ([2]; Fig 3F, humanized BDF1-flag, 0.1235 µM) was 13.13% and 10.59% and 17.61%, the “%Growth” value ([2]; Fig 3F, humanized BDF1-flag, 0.3704 µM) was 5.63% and 5.85% and 8.26% and the “%Growth” value ([2]; Fig 3F, humanized BDF1-flag, 1.1111 µM) was 2.92% and 3.13% and 4.77%. For the same molecule, the “%Growth” value ([2]; Fig 3F, humanized BDF1-flag, 3.3333 µM) was 1.04% and 1.36% and 2.75%, the EC50 ([2]; read-out: EC50 (μM) growth inhibition, Fig 3F, strain bdf1-hBD1-FLAG) was 0.25 ± 0.03 µM and the EC50 ([2]; read-out: EC50 (μM) growth inhibition, Fig 3F, strain bdf1-hBD2-FLAG) was 0.019 ± 0.002 µM. The EC50 ([2]; read-out: EC50 (μM), C. glabrata (hum), Fig 5C, both BDs humanized) was 0.043 ± 0.024 µM and the EC50 ([2]; read-out: EC50 growth inhibition, strain expressing humanized Bdf1) was 0.014 µM.
